Legend:
astrocytoma cells = assay: Pentamethine oxonol translocation, displacement currents in voltage-clamped astrocytoma cells; type: cell-based; conditions: for translocation time constant (crosses the membrane): pentamethine oxonols, DiSBA-C6-(5) value at 20; for displacement current time constant: voltage steps of +20–120 mV
Source text: The membrane translocation rates for the pentamethines are 5–8 times faster than the trimethine analogues. […] The trimethine analogue translocates […] under identical conditions. The displacement currents of DiSBAC6(5) decay very rapidly and are difficult to separate from the cell capacitance. As a result of the large voltage-dependent signal from the Cou-PE/DiSBAC6(5) pair, it was possible to optically measure the speed of voltage response of DiSBAC6(5). The time constant for DiSBAC6(5) translocation was measured optically at 0.383±0.032 ms in response to a 100 mV depolarization step, using FRET from asymmetrically labeled Cou-PE. The enhanced translocation rates result from the greater charge delocalization and slightly more hydrophobicity of the pentamethine oxonols. The rapid voltage response of DiSBAC6(5) is the fastest known for a permeant, highly fluorescent molecule. The submillisecond response is fast enough to accurately register action potentials of single neurons.

L-M(TK^−) cells [1] = assay: Oxonol displacement currents (membrane translocation), whole-cell voltage clamp; type: cell-based; conditions: for translocation time constant: voltage clamped mammalian cells
Description: (§1) All cells were grown and handled like L-M(TK^−) except where noted. L-M(TK^−) cells were grown in Dulbecco's Modified Eagle Media (Gibco; Grand Island, N.Y.) with 10% fetal bovine serum (FBS) and 1% penicillin streptomycin (PS) (Gemini; Calabasas, Calif.). B104 cells were differentiated with 1 μM retinoic acid for 5 days prior to use. The cells were plated on glass coverslips at least one day before use. The adherent cells were washed and maintained in 2.5–3.0 mL of HBSS with 1 g/L glucose and 20 mM HEPES at pH 7.4. A freshly prepared 75 μM aqueous solution of the appropriate oxonol was made prior to an experiment from a DMSO stock solution. The cells were stained by mixing 100 μL of the oxonol solution with 750 μL of the bath and then adding the diluted solution to the cells. The dye was left for 30–40 minutes at a bath concentration of […]. 1.5 mM β-cyclodextrin in the bath solution was necessary for cell loading of DiSBA-C6-(3). The butyl and ethyl derivatives were water-soluble enough to load cells with out β-cyclodextrin complexation. DiSBA-C10-(3) was loaded in a pH 7.4 solution containing 290 mM sucrose and 10 mM HEPES, 364 mOsm, for 10 min at a bath concentration of […]. DiSBA-C10-(3) labeling was quenched by replacing the bath with HBSS solution. The cells were stained with 15 µg/mL of FL-WGA for 15 minutes. The B104 cells required a 125 µg/mL bath concentration to give satisfactory lectin staining. The excess dyes were removed with repeated washes with HBSS. If the excess ethyl or butyl oxonol derivatives were left in the bath, slow currents and fluorescence changes due to redistribution of the dyes into the cell were observed during depolarizations greater than 1 s. The cardiac myocytes [Henderson, S. A., Spencer, M., Sen, A., Kumar, C., Siddiqui, M. A. Q., and Chien, K. R. 1989. Structure organization, and expression of the rat cardiac myosin light chain-2 gene. J. Biol. Chem. 264:18142–18146] were a gift of Professor Kenneth Chien, UCSD. The Jurkat lymphocyte suspensions were grown in RPMI media with 5% heat inactivated FBS and 1% PS. 15–20 mL aliquots of the cellular suspension were washed three times before and after dye staining by centrifugation at 100×g for 4 minutes followed by additions of fresh HBSS.
Patch clamp recording were made using an Axopatch 1-D amplifier equipped with a CV-4 headstage from Axon Instruments (Foster City, Calif.). The data were digitized and stored using the PCLAMP software. The pH 7.4 intracellular solution used contained 125 mM potassium gluconate, 1 mM CaCl2.2H2O, 2 mM MgCl2.6H2O, 11 mM EGTA, and 10 mM HEPES. For the B104 cells, 4 mM ATP and 0.5 mM GTP were added.
The translocation rates were studied in L-M(TK^−) cells using whole-cell voltage clamp recording. The L-M(TK^−) cells were chosen because they have very low background currents and are easy to patch clamp. These cells have a resting potential of −5 mV and no evident voltage activated currents.
12.5 ms long voltage steps at 15 mV increments were applied to the cell, from a holding potential of −70 mV. The larger, faster transients due to simple membrane capacitance transient could be minimized using the capacitance and series resistance compensation capabilities of the Axopatch amplifier, allowing the displacement currents to be clearly observed. The currents are due to redistribution of the membrane-bound oxonol in response to 8 depolarizations. The time constant for the displacement current is 2 ms for 120 mV depolarization. Equal amounts of charge move at the onset and conclusion of the voltage step, but in opposite directions, consistent with redistribution of stored ions from one energy minimum to the other across the plasma membrane. Furthermore, the induced capacitance dq/dV from the oxonol movement is calculated to be ˜5 pF for 100 mV depolarization. This value corresponds to roughly one third the membrane capacitance without the dye. […] The optimum density of sodium channels in an unmyelinated nerve. Philos. Trans. R. Soc. […]

L-M(TK^−) cells [2] = assay: Voltage-sensitive FRET fluorescence changes in voltage clamped L-M(TK^−) cells; type: cell-based
Description: as §1, with “The excess dyes were removed with repeated washes with HBSS.” left out, “The cardiac myocytes [Henderson, S. A., Spencer, M., Sen, A., Kumar, C., Siddiqui, M. A. Q., and Chien, K. R. 1989. Structure organization, and expression of the rat cardiac myosin light chain-2 gene. J. Biol. Chem. 264:18142–18146] were a gift of Professor Kenneth Chien, UCSD. The Jurkat lymphocyte suspensions were grown in RPMI media with 5% heat inactivated FBS and 1% PS. 15–20 mL aliquots of the cellular suspension were washed three times before and after dye staining by centrifugation at 100×g for 4 minutes followed by additions of fresh HBSS.” left out
(§2) The fluorescently labeled cells were excited with light from a 75 W xenon lamp passed through 450–490 nm excitation interference filters. […] The long wavelength Texas Red fluorescence was passed through a 605 nm DF55 bandpass filter. Voltage dependent fluorescence changes in single cells were measured using a Nikon microscope attached to a Photoscan II photometer equipped with two R928 PMTs for dual emission recordings. […]

B104 neuroblastoma cells = assay: Voltage-sensitive FRET in differentiated B104 neuroblastoma cells; type: cell-based; conditions: oxonol as FRET donor to Cy5 labeled PE
Description: (§3) All cells were grown and handled like L-M(TK^−) except where noted. L-M(TK^−) cells were grown in Dulbecco's Modified Eagle Media (Gibco; Grand Island, N.Y.) with 10% fetal bovine serum (FBS) and 1% penicillin streptomycin (PS) (Gemini; Calabasas, Calif.). B104 cells were differentiated with 1 μM retinoic acid for 5 days prior to use. The cells were plated on glass coverslips at least one day before use. The adherent cells were washed and maintained in 2.5–3.0 mL of HBSS with 1 g/L glucose and 20 mM HEPES at pH 7.4. A freshly prepared 75 μM aqueous solution of the appropriate oxonol was made prior to an experiment from a DMSO stock solution. […] If the excess ethyl or butyl oxonol derivatives were left in the bath, slow currents and fluorescence changes due to redistribution of the dyes into the cell were observed during depolarizations greater than 1 s. […]
as §2

1321N astrocytoma cells = assay: Voltage-sensitive FRET fluorescence changes in voltage clamped astrocytoma cells; type: cell-based; conditions: 100 mV depolarization step, FRET from asymmetrically labeled Cou-PE
Description: as §3, §2

Jurkat cell suspensions = assay: Quenching of FL-WGA fluorescence by oxonol titration in cell suspensions; type: cell-based; conditions: cells labeled with FL-WGA
Description: as §3
To transduce charge displacements into optical signals, the oxonol fluorescences at the intracellular and extracellular membrane binding sites is made different. Fluorescence asymmetry is created with the introduction of fluorescently labeled lectins bound to the extracellular membrane surface. […] The extinction coefficient and the fluorescence quantum yield of FL-WGA were measured to be 222,000 M^−1cm^−1 (˜3 fluorescein/protein) and 0.23, respectively. […]

[3] = test system: targeted GFP expressing cells; assay: Temporal response of the GFP/oxonol FRET change; type: cell-based; conditions: oxonol acceptors; identical to displacement current time constants
Source text: The temporal response of the GFP/oxonol FRET change is dependent on the oxonol translocation rate and follows the previously observed trend with oxonol acceptors, faster responses with more hydrophobic acceptors. The measured time constants for the ethyl and butyl oxonol acceptors are ˜50 and ˜5 ms respectively in the targeted GFP expressing cells. The FRET response and the electrophysiologically measured displacement currents have identical time constants. The measured response times are 2–4 fold faster than previously reported and may be a property of the cells used or from a slight difference in temperature.

neuroblastoma = conditions: cited from earlier work
[4] = voltage-clamped fibroblasts, 100 mV depolarization at 20 C

For `CCCCN1C(=O)C(=CC=CC=Cc2c(O)n(CCCC)c(=S)n(CCCC)c2=O)C(=O)N(CCCC)C1=S` [DiSBA-C4-(5)], the “translocation rate relative to the trimethine oxonol analogues” value (astrocytoma cells) was “six times faster than the corresponding trimethine oxonol”, the “translocation time constant (crosses the membrane)” value (astrocytoma cells) was under 3 ms and the “displacement current time constant” value (astrocytoma cells) was about 2 ms.
For `CCCCCCN1C(=O)C(=CC=Cc2c(O)n(CCCCCC)c(=S)n(CCCCCC)c2=O)C(=O)N(CCCCCC)C1=S` [DiSBA-C6-(3), (1,3-dihexyl-2-thiobarbiturate)trimethine oxonol], the “time constant for the displacement current” value (L-M(TK^−) cells [1]; 120 mV depolarization, holding potential −70 mV, 20 C) was 2 ms, the “max, time constant for translocation at V=Vh” value (L-M(TK^−) cells [1]; fit to Eq. 2, FIG. 5, Vh=−5 mV and β=0.42) was 2.9 ms and the translocation time constant (L-M(TK^−) cells [1]) was under 3 ms. For the same compound, the “displacement current time constant” value (L-M(TK^−) cells [1]; [4]) was “about 2 ms”, the “response time (in words)” value (L-M(TK^−) cells [2]; oxonol as FRET donor to TR-WGA) was “same response time as FL-WGA/DiSBA-C6-(3)” and the “signal change (in words)” value (L-M(TK^−) cells [2]; oxonol as FRET donor to TR-WGA) was “only one half that for FL-WGA/DiSBA-C6-(3)”. The ratio changes (B104 neuroblastoma cells) was 5–15 %/100 mV.
With `CCCCCCCCCCN1C(=O)C(=CC=Cc2c(O)n(CCCCCCCCCC)c(=S)n(CCCCCCCCCC)c2=O)C(=O)N(CCCCCCCCCC)C1=S` [DiSBA-C10-(3)] the “displacement currents (in words)” value (L-M(TK^−) cells [1]; compared with DiSBA-C6-(3), 20 C) was “approximately the same speed”, the translocation time constant (L-M(TK^−) cells [1]) was under 2 ms and the “displacement current time constant” value (L-M(TK^−) cells [1]; [4]) was “about 2 ms”.
In the case of `CCCCCCN1C(=O)C(=CC=CC=Cc2c(O)n(CCCCCC)c(=S)n(CCCCCC)c2=O)C(=O)N(CCCCCC)C1=S` [DiSBA-C6-(5), Bis-(1,3-dihexyl-2-thiobarbiturate)-pentamethineoxonol], the “time constant for translocation, measured optically” value (1321N astrocytoma cells) is reported as 0.383 ± 0.032 ms, the response time (astrocytoma cells) is reported as “less than 1 ms” and the “translocation time constant (crosses the membrane)” value (astrocytoma cells) is reported as about 0.4 ms.
In the case of `CCCCN1C(=O)C(=CC=Cc2c(O)n(CCCC)c(=S)n(CCCC)c2=O)C(=O)N(CCCC)C1=S` [DiSBA-C4-(3), Bis-(1,3-dibutyl-2-thiobarbiturate)-trimethineoxonol], the “displacement current time constant” value (L-M(TK^−) cells [1]; 20 C) is reported as about 18 ms, the “activation energy of translocation” value (L-M(TK^−) cells [2]; from time constants at 20 C and 29 C) is reported as about 17 kcal/mol and the “lectin fluorescence intensity quenched” value (Jurkat cell suspensions) is reported as “up to 30%”. For the same compound, the “displacement current time constant” value (astrocytoma cells) was about 18 ms and the “time constant of the FRET response” value [3] was about 5 ms.
In the case of `CCCCCN(CCCCC)c1ccc(/C=C/C=C/c2cc[n+](CCCCS(=O)(=O)[O-])cc2)cc1` [RH-421], the fluorescence change (neuroblastoma) is given as 21 % /100 mV.

— patent publication US7118899B2, “Detection of transmembrane potentials by optical methods” (The Regents of the University of California, priority 2001, dated 2006)
